Results from article PMC5765510, “One pot synthesis of GDP‐mannose by a multi‐enzyme cascade for enzymatic assembly of lipid‐linked oligosaccharides” (Biotechnology and Bioengineering, 2017).

Assays:
Format in all cases: biochemical
[1] = biological target: T1, His6-Glk (Escherichia coli, UniProt P0A6V8); experiment: man6P formation, HPAEC-UV/CD; settings: 10 mM MgCl2, pH 7.5, 30 °C
T1 construct: N-terminal His6 tag, pET-28a(+), expressed in E. coli BL21-Gold(DE3), IMAC purified, 39 kDa
T1 sequence (P0A6V8 1-321): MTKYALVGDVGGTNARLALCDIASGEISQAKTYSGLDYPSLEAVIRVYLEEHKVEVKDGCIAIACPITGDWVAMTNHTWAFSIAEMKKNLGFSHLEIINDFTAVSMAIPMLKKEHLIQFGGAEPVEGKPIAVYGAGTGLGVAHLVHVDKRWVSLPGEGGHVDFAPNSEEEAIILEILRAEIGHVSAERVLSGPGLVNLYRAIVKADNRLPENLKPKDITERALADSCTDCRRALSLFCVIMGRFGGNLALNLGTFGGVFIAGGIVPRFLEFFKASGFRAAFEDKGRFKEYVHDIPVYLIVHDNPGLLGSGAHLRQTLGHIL

[2] = biological target: T2, 1D-Ppk2 (His6-1D-Ppk2) (Pseudomonas aeruginosa, UniProt Q9I154); experiment: polyphosphate-dependent phosphorylation, HPAEC-UV; settings: 4 mM PolyP14, 10 mM MgCl2, pH 7.5, 30 °C; reversible
T2 construct: gene PA2428; N-terminal His6 tag, codon-optimised synthetic gene, pET-28a(+), expressed in E. coli BL21-Gold(DE3), IMAC purified, 38 kDa
T2 sequence (Q9I154 1-304): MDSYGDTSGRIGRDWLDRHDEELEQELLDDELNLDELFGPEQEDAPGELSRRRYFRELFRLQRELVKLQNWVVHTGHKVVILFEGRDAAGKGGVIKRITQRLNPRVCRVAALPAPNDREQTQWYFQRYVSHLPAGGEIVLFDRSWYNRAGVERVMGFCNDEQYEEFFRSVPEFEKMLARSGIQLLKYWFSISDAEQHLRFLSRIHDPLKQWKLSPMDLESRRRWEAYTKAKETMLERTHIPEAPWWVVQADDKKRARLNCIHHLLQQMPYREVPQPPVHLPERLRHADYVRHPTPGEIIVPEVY

[3] = biological target: T3, ManB-His6 (ManB-His6/ManC) (Escherichia coli, UniProt P24175); experiment: man1P/man6P equilibrium, HPAEC-CD; settings: 1.8 mM, 0.25 mM glucose-1,6-bisphosphate, 10 mM MgCl2, pH 7.5, 30 °C
T3 construct: C-terminal His6 ManB co-expressed and co-purified with untagged ManC, E. coli BL21-Gold(DE3), 50 kDa; ManB/ManC ratio only estimated 1:1; with Mannose-1-phosphate guanylyltransferase
T3 sequence (P24174 whole entry): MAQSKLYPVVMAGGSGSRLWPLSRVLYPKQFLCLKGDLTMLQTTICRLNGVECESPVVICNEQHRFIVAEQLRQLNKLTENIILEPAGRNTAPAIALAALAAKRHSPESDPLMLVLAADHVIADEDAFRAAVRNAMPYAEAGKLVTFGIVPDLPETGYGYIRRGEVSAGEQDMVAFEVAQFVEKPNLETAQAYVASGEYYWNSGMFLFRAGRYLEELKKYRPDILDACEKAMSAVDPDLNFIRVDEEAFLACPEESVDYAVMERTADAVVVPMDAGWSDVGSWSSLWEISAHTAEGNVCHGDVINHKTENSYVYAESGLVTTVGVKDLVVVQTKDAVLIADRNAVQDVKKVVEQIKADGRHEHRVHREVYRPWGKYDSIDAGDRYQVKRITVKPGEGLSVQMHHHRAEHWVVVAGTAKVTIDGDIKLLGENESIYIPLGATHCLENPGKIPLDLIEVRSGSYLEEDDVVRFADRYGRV
T3 sequence (P24175 whole entry): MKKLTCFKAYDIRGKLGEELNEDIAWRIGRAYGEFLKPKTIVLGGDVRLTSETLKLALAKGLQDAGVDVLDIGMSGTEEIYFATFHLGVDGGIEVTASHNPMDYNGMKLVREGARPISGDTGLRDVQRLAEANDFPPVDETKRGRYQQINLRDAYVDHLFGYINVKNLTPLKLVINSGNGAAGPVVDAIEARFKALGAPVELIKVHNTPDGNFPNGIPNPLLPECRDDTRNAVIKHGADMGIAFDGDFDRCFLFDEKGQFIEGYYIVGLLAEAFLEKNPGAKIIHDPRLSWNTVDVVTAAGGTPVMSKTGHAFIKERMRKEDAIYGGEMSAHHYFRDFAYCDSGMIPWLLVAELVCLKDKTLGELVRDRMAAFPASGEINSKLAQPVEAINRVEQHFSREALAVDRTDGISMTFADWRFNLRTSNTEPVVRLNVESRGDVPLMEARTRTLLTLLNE

Nc1ncnc2c1ncn2[C@@H]1O[C@H](COP(=O)(O)OP(=O)(O)OP(=O)(O)O)[C@@H](O)[C@H]1O [ATP]
man6P formation, HPAEC-UV/CD ([1]; mannose co-substrate): conversion of ATP and mannose to man6P and ADP is irreversible

OC[C@H]1OC(O)[C@@H](O)[C@@H](O)[C@@H]1O (some centres unmarked) [mannose]
man6P formation, HPAEC-UV/CD ([1]; ATP 1.7 mM, irreversible): conversion of ATP and mannose to man6P and ADP is irreversible

Nc1nc2c(ncn2[C@@H]2O[C@H](COP(=O)(O)OP(=O)(O)O)[C@@H](O)[C@H]2O)c(=O)[nH]1 [GDP]
polyphosphate-dependent phosphorylation, HPAEC-UV [2]: phosphorylation of ADP and GDP, respectively, by His6‐1D‐Ppk2 are equilibrium reactions

O=P(O)(O)O[C@H]1O[C@H](CO)[C@@H](O)[C@H](O)[C@@H]1O [man1P]
man1P/man6P equilibrium, HPAEC-CD [3]: equilibrium conversion of man1P to man6P catalyzed by the ManB‐His6/ManC complex

Nc1ncnc2c1ncn2[C@@H]1O[C@H](COP(=O)(O)OP(=O)(O)O)[C@@H](O)[C@H]1O [ADP]
polyphosphate-dependent phosphorylation, HPAEC-UV [2]: phosphorylation of ADP and GDP, respectively, by His6‐1D‐Ppk2 are equilibrium reactions
